The values below come from US11136321B2, “Tricyclic compounds” (ALIGOS THERAPEUTICS, INC., priority 2019, dated 2021).

The first experiment concerns HBV. Kind of experiment: HBV-DNA antiviral assay using HepG2.117 cells. Format: cell-based, genotype D HBV. Particulars: Hepatitis B virus, 72 h, intracellular HBV DNA by qPCR, 3 days incubation. In a few lines: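 HepG2.117 cells (genotype D HBV, Tet-off) seeded without doxycycline and treated for 3 days at 9 concentrations (4-fold dilutions) in 2% DMSO. Intracellular HBV DNA measured by qPCR against a standard curve, with viability from ATPlite run in parallel. EC50, EC90 and CC50 fitted relative to DMSO controls.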
As a reminder, the EC50 is the concentration that produces a half-maximal response. Low values mean higher potency in that assay, high ones lower potency in that assay. In turn, `CNC(=O)c1ccc(-n2c(=O)c3c(n4ncc(Cc5ccc(OC)cc5F)c24)CN(C(=O)c2ccc(Br)c(Cl)c2)CC3)cc1` [Compound 87, 4-[12-(4-bromo-3-chloro-benzoyl)-5-[(2-fluoro-4-methoxy-phenyl)methyl]-8-oxo-2,3,7,12-tetrazatricyclo [7.4.0.0 2,6]trideca-1(9),3,5-trien-7-yl]-N-methyl-benzamide] displayed an EC50 not above 100 nM.

`CNC(=O)c1ccc(-n2c(=O)c3c(n4ncc(NCc5ccc(OC(F)(F)F)cc5)c24)CN(C(=O)c2ccc(Br)c(Cl)c2)CC3)cc1` [Compound 45, 4-[12-(4-bromo-3-chloro-benzoyl)-8-oxo-5-[[4-(trifluoromethoxy)phenyl]methylamino]-2,3,7,12-tetrazatricyclo [7.4.0.0 2,6]trideca-1(9),3,5-trien-7-yl]-N-methyl-benzamide] registered an EC50 not above 100 nM.

In turn, `COc1ccc(-n2c(=O)c3c(n4ncc(NS(=O)(=O)Cc5ccccc5)c24)CN(C(=O)c2ccc(Br)c(Cl)c2)CC3)cc1` [Compound 33, N-[12-(4-bromo-3-chloro-benzoyl)-7-(4-methoxyphenyl)-8-oxo-2,3,7,12-tetrazatricyclo [7.4.0.0 2,6]trideca-1(9),3,5-trien-5-yl]-1-phenyl-methanesulfonamide] gave an EC50 of 500 to 5000 nM.

In the case of `CNC(=O)c1ccc(-n2c(=O)c3c(n4ncc(Cc5ccccc5)c24)CN(C(=O)c2ccc(Cl)c(Cl)c2)CC3)cc1` [Compound 34, 4-[5-benzyl-12-(3,4-dichlorobenzoyl)-8-oxo-2,3,7,12-tetrazatricyclo [7.4.0.0 2,6]trideca-1(9),3,5-trien-7-yl]-N-methyl-benzamide], the EC50 was not above 100 nM.

For the compound `CNC(=O)c1ccc(-n2c(=O)c3c(n4ncc(Cc5ccccc5)c24)CN(C(=O)c2ccc(Br)cn2)CC3)cc1` [Compound 56, 4-[5-benzyl-12-(5-bromopyridine-2-carbonyl)-8-oxo-2,3,7,12-tetrazatricyclo [7.4.0.0 2,6]trideca-1(9),3,5-trien-7-yl]-N-methyl-benzamide], the EC50 lay in the range of 500 to 5000 nM.

As to `NC(=O)c1ccc(-n2c(=O)c3c(n4ncc(NCc5ccccc5)c24)CN(C(=O)c2ccc(Cl)c(Cl)c2)CC3)cc1` [Compound 50, 4-[5-(benzylamino)-12-(3,4-dichlorobenzoyl)-8-oxo-2,3,7,12-tetrazatricyclo [7.4.0.0 2,6]trideca-1(9),3,5-trien-7-yl] benzamide], the EC50 was not above 100 nM.

Compound `CNC(=O)c1ccc(-n2c(=O)c3c(n4ncc(Cc5ccc(C#N)cc5F)c24)CN(C(=O)c2ccc(Br)c(Cl)c2)CC3)cc1` [Compound 85, 4-[12-(4-bromo-3-chloro-benzoyl)-5-[(4-cyano-2-fluoro-phenyl)methyl]-8-oxo-2,3,7,12-tetrazatricyclo [7.4.0.0 2,6]trideca-1(9),3,5-trien-7-yl]-N-methyl-benzamide] came in with an EC50 not above 100 nM.

The compound `CNC(=O)c1ccc(-n2c(=O)c3c(n4ncc(NCc5ccc(F)cc5)c24)CN(C(=O)c2ccc(Br)c(Cl)c2)CC3)cc1` [Compound 67, 4-[12-(4-bromo-3-chloro-benzoyl)-5-[(4-fluorophenyl)methylamino]-8-oxo-2,3,7,12-tetrazatricyclo [7.4.0.0 2,6]trideca-1(9),3,5-trien-7-yl]-N-methyl-benzamide] registered an EC50 not above 100 nM.

Compound `CNC(=O)c1ccc(-n2c(=O)c3c(n4ncc(Cc5ccccc5)c24)CN(C(=O)c2ccc(Br)c(C#N)c2)[C@H](C)C3)cc1` (stereo in doubt) [Compound 81, N-methyl-4-[rac-(11R)-5-benzyl-12-(4-bromo-3-cyano-benzoyl)-11-methyl-8-oxo-2,3,7,12-tetrazatricyclo [7.4.0.0 2,6]trideca-1(9),3,5-trien-7-yl] benzamide] registered an EC50 not above 100 nM.

As for `CNC(=O)c1ccc(-n2c(=O)c3c(n4ncc(NCc5ccc(OC(F)(F)F)cc5)c24)CN(C(=O)c2ccc(Cl)c(Cl)c2)CC3)cc1` [Compound 44, 4-[12-(3,4-dichlorobenzoyl)-8-oxo-5-[[4-(trifluoromethoxy)phenyl]methylamino]-2,3,7,12-tetrazatricyclo [7.4.0.0 2,6]trideca-1(9),3,5-trien-7-yl]-N-methyl-benzamide], the EC50 fell in the range of 100 to 500 nM.

With `O=C(NC1CC1)c1ccc(-n2c(=O)c3c(n4ncc(Cc5ccccc5)c24)CN(C(=O)c2ccc(Br)c(Cl)c2)CC3)cc1` [Compound 68, 4-[5-benzyl-12-(4-bromo-3-chloro-benzoyl)-8-oxo-2,3,7,12-tetrazatricyclo [7.4.0.0 2,6]trideca-1(9),3,5-trien-7-yl]-N-cyclopropyl-benzamide], the EC50 is more than 5000 nM.

As to `CC(C)CNC(=O)c1cnn2c3c(c(=O)n(-c4ccccc4)c12)CCN(C(=O)c1ccc(Cl)c(Cl)c1)C3` [Compound 19, 12-(3,4-dichlorobenzoyl)-N-isobutyl-8-oxo-7-phenyl-2,3,7,12-tetrazatricyclo [7.4.0.0^2,6] trideca-1(9),3,5-triene-5-carboxamide], the EC50 was more than 5000 nM.

For `CNC(=O)c1ccc(-n2c(=O)c3c(n4ncc(NCc5ccc(C#N)cc5)c24)CN(C(=O)c2ccc(Br)c(Cl)c2)CC3)cc1` [Compound 55, 4-[12-(4-bromo-3-chloro-benzoyl)-5-[(4-cyanophenyl)methylamino]-8-oxo-2,3,7,12-tetrazatricyclo [7.4.0.0 2,6]trideca-1(9),3,5-trien-7-yl]-N-methyl-benzamide], the EC50 lay in the range of 100 to 500 nM.

The compound `CNC(=O)c1ccc(-n2c(=O)c3c(n4ncc(NCc5ccc(OCC(N)=O)cc5)c24)CN(C(=O)c2ccc(Cl)c(Cl)c2)CC3)cc1` [Compound 53, 4-[5-[[4-(2-amino-2-oxo-ethoxy)phenyl]methylamino]-12-(3,4-dichlorobenzoyl)-8-oxo-2,3,7,12-tetrazatricyclo [7.4.0.0 2,6]trideca-1(9),3,5-trien-7-yl]-N-methyl-benzamide] showed an EC50 of 500 to 5000 nM.

For `CNC(=O)c1ccc(-n2c(=O)c3c(n4ncc(Cc5ccc(OC)cc5)c24)CN(C(=O)c2ccc(Br)c(Cl)c2)CC3)cc1` [Compound 88, 4-[12-(4-bromo-3-chloro-benzoyl)-5-[(4-methoxyphenyl)methyl]-8-oxo-2,3,7,12-tetrazatricyclo [7.4.0.0 2,6]trideca-1(9),3,5-trien-7-yl]-N-methyl-benzamide], the EC50 was not above 100 nM.

`N#Cc1cc(C(=O)N2CCc3c(n4ncc(Cc5ccccc5)c4n(-c4ccc(-c5ncc[nH]5)cc4)c3=O)C2)ccc1Br` [Compound 73, 5-[5-benzyl-7-[4-(1H-imidazol-2-yl)phenyl]-8-oxo-2,3,7,12-tetrazatricyclo [7.4.0.0 2,6]trideca-1(9),3,5-triene-12-carbonyl]-2-bromo-benzonitrile]: the EC50 was in the range of 500 to 5000 nM.

In turn, `CNC(=O)c1ccc(-n2c(=O)c3c(n4ncc(Cc5ccc(F)cc5)c24)CN(C(=O)c2ccc(Br)c(Cl)c2)CC3)cc1` [Compound 59, 4-[12-(4-bromo-3-chloro-benzoyl)-5-[(4-fluorophenyl)methyl]-8-oxo-2,3,7,12-tetrazatricyclo [7.4.0.0 2,6]trideca-1(9),3,5-trien-7-yl]-N-methyl-benzamide] came in with an EC50 not above 100 nM.

As to `Cc1cnn2c3c(c(=O)n(-c4ccccc4)c12)CCN(C(=O)c1ccc(Br)c(Cl)c1)C3` [Compound 10, 12-(4-bromo-3-chlorobenzoyl)-5-methyl-7-phenyl-2,3,7,12-tetraazatricyclo[7.4.0.0^[2,6]]trideca-1(9),3,5-trien-8-one], the EC50 lay in the range of 100 to 500 nM.

Take `CNC(=O)c1ccc(-n2c(=O)c3c(n4ncc(Cc5ccc(OC)cc5F)c24)CN(C(=O)c2ccc(Br)c(C#N)c2)CC3)cc1` [Compound 86, 4-[12-(4-bromo-3-cyano-benzoyl)-5-[(2-fluoro-4-methoxy-phenyl)methyl]-8-oxo-2,3,7,12-tetrazatricyclo [7.4.0.0 2,6]trideca-1(9),3,5-trien-7-yl]-N-methyl-benzamide]: the EC50 was in the range of 100 to 500 nM.

Regarding `CNC(=O)c1ccc(-n2c(=O)c3c(n4ncc(NC(C)c5ccccc5)c24)CN(C(=O)c2ccc(Br)c(C#N)c2)CC3)cc1` (stereo not drawn) [Compound 83, 4-[12-(4-bromo-3-cyano-benzoyl)-8-oxo-5-(1-phenylethylamino)-2,3,7,12-tetrazatricyclo [7.4.0.0 2,6]trideca-1(9),3,5-trien-7-yl]-N-methyl-benzamide], the EC50 was in the range of 100 to 500 nM.

`CNC(=O)c1ccc(-n2c(=O)c3c(n4ncc(NCc5ccccc5F)c24)CN(C(=O)c2ccc(Br)c(C#N)c2)CC3)cc1` [Compound 69, 4-[12-(4-bromo-3-cyano-benzoyl)-5-[(2-fluorophenyl)methylamino]-8-oxo-2,3,7,12-tetrazatricyclo [7.4.0.0 2,6]trideca-1(9),3,5-trien-7-yl]-N-methyl-benzamide] showed an EC50 of 100 to 500 nM.

Compound `CNC(=O)c1ccc(-n2c(=O)c3c(n4ncc(Cc5ccc(F)cc5)c24)CN(C(=O)c2ccc(Br)c(C#N)c2)CC3)cc1` [Compound 60, 4-[12-(4-bromo-3-cyano-benzoyl)-5-[(4-fluorophenyl)methyl]-8-oxo-2,3,7,12-tetrazatricyclo [7.4.0.0 2,6]trideca-1(9),3,5-trien-7-yl]-N-methyl-benzamide] yielded an EC50 not above 100 nM.

The same experiment, now with this note: intracellular HBV DNA by qPCR, 3 days incubation.
Compound `COc1ccc(-n2c(=O)c3c(n4ncc(NC(=O)C(C)C)c24)CN(C(=O)c2ccc(Cl)c(Cl)c2)CC3)cc1` [Compound 22, N-[12-(3,4-dichlorobenzoyl)-7-(4-methoxyphenyl)-8-oxo-2,3,7,12-tetrazatricyclo [7.4.0.0^2,6]trideca-1(9),3,5-trien-5-yl]-2-methyl-propanamide] displayed an EC50 of more than 5000 nM.

`CNC(=O)c1ccc(-n2c(=O)c3c(n4ncc(Cc5ccc(OC(F)(F)F)cc5)c24)CN(C(=O)c2ccc(Br)c(Cl)c2)CC3)cc1` [Compound 35, 4-[12-(4-bromo-3-chlorobenzoyl)-8-oxo-5-[[4-(trifluoromethoxy)phenyl]methyl]-2,3,7,12-tetraazatricyclo[7.4.0.0^[2,6]]trideca-1(9),3,5-trien-7-yl]-N-methylbenzamide]: the EC50 was not above 100 nM.
